US11014934B2, “Antiseptic drug” (AO “TATKHIMFARMPREPARATY”, priority 2017, dated 2021)
Where two headings read alike, the source gives them in different places.

Experiments:
[1] = tested on: Bovine rhinotracheitis virus (herpes virus family), vaccine strain TK-A (VIEV)-V2; assay: Antiviral (virulicidal) activity, cytopathogenic effect on LCE cells; assay type: cell-based, IBR virus; details: for destruction of the monolayer, drug with the virus: virus incubated with drug one hour, LCE cells 72 hours; for concentration with virulicidal effect: herpes virus type 1, infectious titer 6.0 Ig TCD50/ml
Procedure: The study of the antiviral activity of compound I in vitro was carried out in accordance with [D. L. Kuznetsov, A. YA. Samuylenko, V. I. Belousov Immunofermentnaya diagnostika IRT KRS. Veterinariya.—2002.—No 3.—S. 22-25. D. L. Kuznetsov, A. Y. ? Samuylenko, V. I. Belousov Enzyme-linked immunosorbent assay for cattle IBR. Veterinary medicine.—2002.—No 3.—P. 22-25].
Cells of a light cow embryo (LCE) are obtained from the Federal State Budgetary Institution “All-Russian Institute of Experimental Veterinary Medicine”, Moscow. Bovine rhinotracheitis virus (herpes virus family), vaccine strain “TK-A (VIEV)-V2” was obtained from the Federal State Budgetary Institution “All-Russian Institute of Experimental Veterinary Medicine”, Moscow.
Evaluation of the antiviral activity of compound I was carried out in an appropriate medium on LCE cells that were infected with the IBR virus belonging to the type 1 herpes virus family.
The virus was incubated in the presence of compound I in a culture medium at 37° C. for one hour at various concentrations; miramistin and benzalkonium chloride served as control preparations. After incubation of the virus with substances, it was added to the cell culture, which was then incubated at 37° C., 5% CO2 for 72 hours.
Evaluation of the cytopathogenic effect was carried out visually by the state of the cell monolayer as compared with the controls (virus without incubation with the drug, the studied drug concentrations without the virus). The virus titer was calculated using the method of Reed-Muench in the modification of Ashmarin and expressed in Ig TCD50/ml.

[2] = tested on: Rhizopus oryzae RCPF F-1537/1722; assay: Antifungal activity, 2-fold serial dilutions in Saburo glucose broth; assay type: cell-based, Rh. oryzae; details: for MIC: read-out: The value of the MIC
Procedure: (§1) The study of the antifungal activity of compound I in vitro was carried out in accordance with [Metodicheskiye rekomendatsii No 2. Mikologicheskoye issledovaniye ob″yektov okruzhayushchey sredy i opredeleniye protivogribkovoy aktivnosti razlichnykh veshchestv.—GOU DPO SPbMAPO NII meditsinskoy mikologii im. P. N. Kashkina, GBOU VPO SZGMU im. I. I. Mechnikova Minzdrava. SPb.: Izd. Dom SPbMAPO.—2008.—S. 16. Methodological recommendations No 2. Mycological examination of environmental objects and determination of antifungal activity of various substances.—State Educational Institution of St. Petersburg Medical Academy of Postgraduate Education with Scientific Research Institute of Medical Mycology named after P. N. Kashkin, State Educational Institution of Higher Professional Education North-West State Medical University named after I. I. Mechnikov, Ministry of Health. St. Petersburg.:: Publishing House SPbMAPO.—2008.—P. 16].
(§2) The study of the antifungal activity of substances in vitro was carried out in a liquid nutrient medium (Saburo glucose broth) in biological tubes by the method of 2-fold serial dilutions. In test tubes, three parallel series of dilutions of the test substance were prepared in the following way.
Saburo's liquid broth was sterilely poured in 3 ml into each tube; 4.5 ml was poured into the first tube of the row. A total of 14 tubes were used in a row; of which the last was a control one. […] The growth of cultures was initially assessed visually, comparing the growth of microorganisms in the presence of test compounds with the growth of culture without them. […] The first lowest concentration of the substance (from a series of consecutive dilutions), where the growth of fungi was suppressed or not visually determined, was considered the minimum inhibitory concentration (MIC).
(§3) For the preparation of inoculum, were respectively used pure (2-5) days cultures of yeast and mycelial fungi, grown on Saburo's dense nutrient broth. […] The inoculum was used within 15 minutes after preparation; the purity of the fungal strains was monitored before each experiment. […]

[3] = tested on: Candida albicans RCPF Y-401/NCTC-885-653; assay: as above; assay type: cell-based, C. albicans; details: for MIC: Candida albicans
Procedure: as §1, §2
Saburo's liquid broth was sterilely poured in 3 ml into each tube; 4.5 ml was poured into the first tube of the row. A total of 14 tubes were used in a row; of which the last was a control one. 400 mg of the test substance was taken as a standard sample and dissolved in 10 ml of distilled water. Thus, the initial dilution contained the test substance at a concentration of 40000 ug/ml. Then 0.5 ml of this dilution was introduced into the first test tube of the series (with 4.5 ml of medium), thereby diluting the concentration of the substance by another 10 times. Therefore, the first tube of the series contained 4000 μg/ml of the test substance. Then, 3 ml of the solution was taken from the first tube and transferred to the second tube, thoroughly purged, then 3 ml of the solution were taken again from the second tube and transferred to the third tube, etc.; from the penultimate tube, 3 ml was poured. […] The growth of cultures was initially assessed visually, comparing the growth of microorganisms in the presence of test compounds with the growth of culture without them. […] The first lowest concentration of the substance (from a series of consecutive dilutions), where the growth of fungi was suppressed or not visually determined, was considered the minimum inhibitory concentration (MIC).
as §3

[4] = C. albicans RCPF Y-401/NCTC-885-653

Compound: CCCCCCCCCCCC[N+](C)(C)Cc1cnc(C[N+](C)(C)CCCCCCCCCCCC)c2c1COC(CC)O2 (stereo not shown) [Compound I, 5,8-(Bis(methylene (N, N-dimethyl-N-dodecylammonium))-2-ethyl-4H-[1,3]dioxino [4,5-c]pyridiniumdichloride]
- destruction of the monolayer, drug with the virus ([1]; 150 μg/ml): ++ (++ - −40-70% destruction of the monolayer)
- destruction of the monolayer, drug with the virus ([1]; 200 μg/ml): − (−0-10% destruction of the monolayer)
- concentration with virulicidal effect [1]: 200 µg/mL
- MIC ([2]; Rh. nigricans RCPFF-l537/1722): 62.5 µg/mL
- MIC ([3]; NCTC885, C. albicans RCPF Y-401/NCTC-885-653, read-out: The value of the MIC): 62.5 µg/mL

Compound: CCCCCCCCCCCCCC(=O)NCCC[N+](C)(C)Cc1ccccc1.O.[Cl-] [Miramistin, benzyldimethyl [3-(myristoylamino)propyl]-ammonium chloride monohydrate]
- destruction of the monolayer, drug with the virus ([1]; 100 μg/ml): +++ (+++ - 90-100% destruction of the monolayer)
- destruction of the monolayer, drug with the virus ([1]; 150 μg/ml): − (−0-10% destruction of the monolayer)
- destruction of the monolayer, drug with the virus ([1]; 200 μg/ml): − (−0-10% destruction of the monolayer)
- concentration with virulicidal effect [1]: 150 µg/mL
- MIC [2]: 62.5 µg/mL
- The value of the MIC [3, 4]: inactive
- MIC ([3]; NCTC885, read-out: The value of the MIC): > 500 µg/mL

Compound: alkyldimethyl(phenylmethyl) ammonium chloride [Benzalconium chloride]
- destruction of the monolayer, drug with the virus ([1]; 150 μg/ml): ++ (++ - −40-70% destruction of the monolayer)
- destruction of the monolayer, drug with the virus ([1]; 200 μg/ml): − (−0-10% destruction of the monolayer)
- The value of the MIC ([2]; Rh. nigricans RCPFF-l537/1722): 15.6 µg/mL
- The value of the MIC [3, 4]: 7.8 µg/mL
